For assay [1], the target named is T1, Electric eel acetylcholinesterase (AChE, EC 3.1.1.7) (Electrophorus electricus, UniProt O42275).
T1 construct: purchased Sigma-Aldrich (USA)
As to the kind of experiment: biochemical. The conditions noted are these: for AChE % inhibition: single read. The source says: (§1) Ellman’s colorimetric method with minor modification was employed in the determination of AChE and BChE inhibitory activities. Electric eel acetylcholinesterase (AChE, EC 3.1.1.7), equine serum butyrylcholinesterase (BChE, EC 3.1.1.8), 5,5′-Dithiobis(2-nitrobenzoic acid) (DTNB) and sodium phosphate dibasic (Na2HPO4) were purchased from Sigma-Aldrich (USA). S-butyrylthiocholine chloride (BTCC) from Sigma-Aldrich (Switzerland), acetylthiocholine iodide (ATCI) from Sigma-Aldrich (United Kingdom) and sodium phosphate monobasic (NaH2PO4) from Sigma-Aldrich (Germany) were purchased. […] Ethanol was used to replace the sample as a control in this assay.

The target of assay [2] is T2, equine serum butyrylcholinesterase (BChE, EC 3.1.1.8) (Equus caballus, UniProt P81908).
T2 construct: equine serum butyrylcholinesterase (BChE, EC 3.1.1.8); purchased Sigma-Aldrich (USA); host or cells: equine serum
T2 sequence (P81908 whole entry): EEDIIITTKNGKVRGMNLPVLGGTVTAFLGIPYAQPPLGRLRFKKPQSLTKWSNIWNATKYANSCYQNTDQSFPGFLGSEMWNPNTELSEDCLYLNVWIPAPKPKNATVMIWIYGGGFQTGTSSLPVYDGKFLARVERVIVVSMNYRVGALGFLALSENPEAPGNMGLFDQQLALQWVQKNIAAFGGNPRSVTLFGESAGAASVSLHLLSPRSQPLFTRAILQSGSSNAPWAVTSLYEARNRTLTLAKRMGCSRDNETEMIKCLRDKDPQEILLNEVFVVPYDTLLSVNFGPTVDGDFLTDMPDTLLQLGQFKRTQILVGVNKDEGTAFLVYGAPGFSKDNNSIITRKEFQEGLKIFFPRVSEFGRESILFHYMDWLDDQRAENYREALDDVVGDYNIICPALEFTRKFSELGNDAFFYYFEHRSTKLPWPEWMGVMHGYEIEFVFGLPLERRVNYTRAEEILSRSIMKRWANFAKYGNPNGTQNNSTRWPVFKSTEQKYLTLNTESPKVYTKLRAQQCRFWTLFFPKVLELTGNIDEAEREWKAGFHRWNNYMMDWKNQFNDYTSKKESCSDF
As to the kind of experiment: biochemical. Type of assay: biochemical. The conditions noted are these: for BChE % inhibition: single read.
Text: as §1

The mark [3] stands for this setting: mean ± SD, n = 3, read-out: IC50 (µM) AChE.
The mark [4] stands for this setting: mean ± SD, n = 3, read-out: IC50 (µM) BChE.
Where [5] appears, read: N = 3, unit not given (µg/mL scale), read-out: BChE IC50, Tukey HSD homogeneous subsets (group mean) (converted).

“And” between values parts separate entries of the source, which are not always exact repeats. Identical values can stand only once. Like-named read-outs stand apart in the source and are kept apart here.

T1 sequence (O42275 24-633): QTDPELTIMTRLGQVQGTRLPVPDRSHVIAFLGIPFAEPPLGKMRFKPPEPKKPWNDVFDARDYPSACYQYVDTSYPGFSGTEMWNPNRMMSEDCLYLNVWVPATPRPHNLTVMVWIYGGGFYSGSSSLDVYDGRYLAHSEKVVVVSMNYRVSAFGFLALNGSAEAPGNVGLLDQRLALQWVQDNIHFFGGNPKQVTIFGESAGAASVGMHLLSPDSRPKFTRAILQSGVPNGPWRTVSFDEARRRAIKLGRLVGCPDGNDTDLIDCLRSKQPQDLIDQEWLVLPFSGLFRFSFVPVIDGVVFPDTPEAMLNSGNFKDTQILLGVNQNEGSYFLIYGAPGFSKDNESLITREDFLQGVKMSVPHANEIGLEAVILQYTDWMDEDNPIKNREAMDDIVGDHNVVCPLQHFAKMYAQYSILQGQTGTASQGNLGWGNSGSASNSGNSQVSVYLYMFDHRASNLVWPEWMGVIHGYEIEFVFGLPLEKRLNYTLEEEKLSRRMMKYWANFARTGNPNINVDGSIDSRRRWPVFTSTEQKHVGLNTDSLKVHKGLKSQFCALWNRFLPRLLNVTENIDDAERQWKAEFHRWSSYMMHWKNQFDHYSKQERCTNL

As to `Clc1cccn2cc(-c3ccc(-c4ccccc4)cc3)nc12` [Compound 2i, 2-([1,1′-biphenyl]-4-yl)-8-chloroimidazo[1,2-a]pyridine], the IC50 in assay [1] (average of three reads, read-out: AChE IC50 (µM) Average) is 253 µM; in assay [1] (average of three reads, read-out: AChE IC50 (µg/mL) Average (converted)), 253 µM; in assay [1] (first read, read-out: AChE IC50 (µM) First read), 269 µM; in assay [1] (first read, read-out: AChE IC50 (µg/mL) First read (converted)) it was 268 µM; in assay [1] (setting [3]) it was 253 ± 25 µM; in assay [1] (second read, read-out: AChE IC50 (µM) Second read), 225 µM. Moreover, the IC50 in assay [1] (second read, read-out: AChE IC50 (µg/mL) Second read (converted)) was 224 µM; in assay [1] (third read, read-out: AChE IC50 (µM) Third read), 266 µM; in assay [1] (third read, read-out: AChE IC50 (µg/mL) Third read (converted)), 265 µM; in assay [2] (setting [4]), over 2000 µM. For the same compound, the AChE % inhibition in assay [1] (conc 50 (µg/mL)) was 10.30% and 14.24% and 6.35%; in assay [1] (conc 75 (µg/mL)), 37.90% and 58.60% and 35.60%; in assay [1] (conc 100 (µg/mL)), 49.40% and 76.34% and 66.48%; in assay [1] (conc 125 (µg/mL)), 81.60% and 94.74% and 74.70%; in assay [1] (conc 150 (µg/mL)), 92.44% and 89.16% and 84.56%; in assay [1] (conc 200 (µg/mL)), 97.37% and 103.61% and 101.97%.
In the case of `Clc1ccc(-c2cn3ccccc3n2)cc1Cl` [Compound 2j, 2-(3,4-dichlorophenyl)imidazo[1,2-a]pyridine], the IC50 in assay [1] (setting [3]) is over 2000 µM; in assay [2] (setting [5]), 75.6 µM. Further, the BChE % inhibition was 27.75% and 48.55% and 34.78% in assay [2] (conc 12.5 (µg/mL)); 50.87% and 55.49% and 62.14% in assay [2] (conc 25 (µg/mL)); 63.01% and 66.76% and 69.65% in assay [2] (conc 50 (µg/mL)); 91.04% and 87.86% and 90.17% in assay [2] (conc 100 (µg/mL)).
For `Cc1cccn2cc(-c3ccc(Cl)c(Cl)c3)nc12` [Compound 2k, 2-(3,4-dichlorophenyl)-8-methylimidazo[1,2-a]pyridine], the IC50 in assay [1] (setting [3]) is over 2000 µM; in assay [2] (setting [5]) it was 197 µM; in assay [2] (average of three reads, read-out: BChE IC50 (µM) Average), 191 µM; in assay [2] (average of three reads, read-out: BChE IC50 (µg/mL) Average (converted)), 191 µM; in assay [2] (first read, read-out: BChE IC50 (µM) First read) it was 225 µM; in assay [2] (first read, read-out: BChE IC50 (µg/mL) First read (converted)), 224 µM. Besides, the IC50 in assay [2] (setting [4]) was 191 ± 29 µM; in assay [2] (second read, read-out: BChE IC50 (µM) Second read), 177 µM; in assay [2] (second read, read-out: BChE IC50 (µg/mL) Second read (converted)), 176 µM; in assay [2] (third read, read-out: BChE IC50 (µM) Third read), 172 µM; in assay [2] (third read, read-out: BChE IC50 (µg/mL) Third read (converted)), 171 µM. The BChE % inhibition in assay [2] (conc 50 (µg/mL)) is 44.12% and 38.16% and 45.75%; in assay [2] (conc 100 (µg/mL)), 66.91% and 74.50%; in assay [2] (conc 150 (µg/mL)) it was 80.47% and 68.54% and 70.16%; in assay [2] (conc 200 (µg/mL)) it was 146.65% and 115.19%.
As to `COc1ccc(-c2cn3ccccc3n2)cc1` [Compound 2l, 2-(4-methoxyphenyl)imidazo[1,2-a]pyridine], the IC50 in assay [1] (setting [3]) and in assay [2] (setting [4]) was over 2000 µM each time.
As to `COc1ccc(-c2cn3cccc(C)c3n2)cc1` [Compound 2m, 2-(4-methoxyphenyl)-8-methylimidazo[1,2-a]pyridine], the IC50 in assay [1] (setting [3]) and in assay [2] (setting [4]) was over 2000 µM each time.
Regarding `Cc1cccn2cc(-c3ccc(Cl)cc3)nc12` [Compound 2n, 2-(4-chlorophenyl)-8-methylimidazo[1,2-a]pyridine], the results for the IC50 in assay [1] (setting [3]), in assay [2] (setting [5]) and in assay [2] (setting [4]) were over 2000 µM, 737 µM and 722 ± 48 µM, respectively. Also, the BChE % inhibition in assay [2] (conc 25 (µg/mL)) was 10.83% and 20.0586% and 13.47%; in assay [2] (conc 100 (µg/mL)) it was 42.02% and 27.53% and 43.78%; in assay [2] (conc 150 (µg/mL)) it was 45.53% and 45.97% and 50.81%; in assay [2] (conc 200 (µg/mL)) it was 56.52% and 54.76% and 59.15%; in assay [2] (conc 250 (µg/mL)) it was 63.98% and 61.79%.
For `Cc1cccn2cc(-c3ccc(Br)cc3)nc12` [Compound 2o, 2-(4-bromophenyl)-8-methylimidazo[1,2-a]pyridine], the IC50 in assay [1] (setting [3]) and in assay [2] (setting [4]) was over 2000 µM in each case.

For the origin of these results see article PMC6354011 (Scientific Reports, 2019).
